The values that follow are results of earlier work, collected in patent US4788322A, “Process for preparing ACHPA” (Merck & Co., Inc., priority 1987, dated 1988).

Square brackets hold non-standard residues; d marks the D form. Peptide text beside a SMILES is read from it. * marks the point of attachment. Sta = CC(C)C[C@H](N)[C@@H](O)CC(=O)O; Isovaleryl = CC(C)CC(=O)*

This series relates to hog renin. The following applies: after injection of hog renin into nephrectomized rats; Gross et al., Science 1972.

On to `CC(C)CC(=O)N[C@H](C(=O)N[C@H](C(=O)N[C@@H](CC(C)C)[C@@H](O)CC(=O)N[C@@H](C)C(=O)N[C@@H](CC(C)C)[C@@H](O)CC(=O)O)C(C)C)C(C)C` [pepstatin] (Isovaleryl-VV[Sta]A[Sta]-OH), for which the “blood pressure in vivo” value is listed as “reduces blood pressure”.
